From article PMC10600239, “Selective MCL-1 inhibitor ABBV-467 is efficacious in tumor models but is associated with cardiac troponin increases in patients” (Communications Medicine, 2023)
Where “and” joins values, the source holds several entries; their conditions need not be identical. Identical values can stand only once.

Tested on: AMO-1 xenografts
Test: AMO-1 xenograft efficacy (tumor volume, body weight)
Format: in vivo, mouse
Design: key to Anti-tumor Activity vs. AMO-1 (DSMZ), Median / Anti-tumor Activity vs. AMO-1 (DSMZ), individual animal / Anti-tumor Activity vs. AMO-1 (DSMZ), Mean: tumor volume in mm^3 (length × width^2/2)
Experimental: All animal studies were conducted in accordance with the guidelines approved by the Institutional Animal Care and Use Committees of AbbVie. The research protocol was approved by In Vivo Pharmacology at AbbVie prior to study initiation but was not publicly registered or disclosed. Female C.B-17 SCID-beige mice (AMO-1, OPM-2, NCI-H929, and OCI-AML2 xenografts) and female NSG mice (MV4-11-Red.Fluc systemic) were purchased from Charles River Laboratories (Wilmington, MA). Animals were housed in a light cycle-controlled room with HEPA filtration at 22 °C. Animals had nesting and climbing cage topper as the primary environmental enrichment. Animals were inoculated subcutaneously in the right flank with 5 × 10^6 (AMO-1, OPM-2, NCI-H929, and OCI-AML2) or intravenous (IV) with 5 × 10^6 (MV4-11-Red.Fluc). The inoculation volume (0.2 mL) comprised a 50:50 mixture of cells in growth media and Matrigel (BD Biosciences) for subcutaneous injections and 100% phosphate-buffered saline for IV administration. All cell lines used in this publication were authenticated using IDEXX for STR profiling as well as their IMPACT and human IMPACT panels for pathogen screening. Electronic calipers were used to measure the length and width of each tumor 2 to 3 times per week. Tumor volume was estimated by applying the following equation: volume = length × width^2/2. All groups remained blinded during measurements and dosing; only veterinary staff were aware of group identity. When tumors reached approximately 200 mm^3, mice were randomized by match and distributed into treatment and control groups. All xenograft trials were conducted using 5 to 10 mice per group, and all mice were ear tagged and monitored individually throughout the studies. […] Tumor burden in the systemic MV4-11-Red.Fluc experiment was measured using an IVIS® spectrum from PerkinElmer by taking the total photon flux of the entire dorsal side of an individual mouse. […] A background control mouse that was tumor naive but received D-Luciferin was placed in the upper left corner of each image. The total flux from this animal was subtracted from the total flux of each animal present in the image.
For in vivo studies, maximal tumor growth inhibition (TGI) was calculated as the greatest treatment response using the following equation: Maximal TGI = (1 − mean tumor volume of the treated group/mean tumor volume of the vehicle control group) × 100. The tumor growth delay (TGD) percentage was determined as the percentage increase of the median time period for the treatment group to reach an arbitrary tumor volume of 1000 mm^3 relative to the vehicle control group. […] A power analysis was conducted using historical data to determine the number of animals required to yield significance of 0.05 at a 30% difference. […] Data from experiments in vivo were analyzed using the student’s t-test for TGI values and the Mann–Whitney U test for TGD using Excel and GraphPad Prism. Fisher’s exact test was used to probe significance of differences in response frequency.

[1] = 3.13 mg/kg IV QDx1, Day 13 (day before dosing begins)
[2] = 3.13 mg/kg QDx1 IV, Day 26, n=8

Compound: Cc1c(Cl)c2c(Cl)c(C)c1-c1c(-c3ccc(F)cc3)sc3ncnc(c13)O[C@@H](C(=O)O)Cc1cc(ccc1OCc1ccnc(-c3ccc(OC[C@H]4COCCO4)cc3)n1)OC[C@@H](CN1CCN(C)CC1)O2 [Compound A-1747745.0]
- Starting Body Wt. (3.13 mg/kg IV QDx1, AMO-1 xenograft, SCID-beige mice, in g (unit assumed)): 21.625
- % Mortality (3.13 mg/kg IV QDx1, clinical observation): 100.00%
- Anti-tumor Activity vs. AMO-1 (DSMZ), Mean (3.13 mg/kg IV QDx1, day 13): 216.27
- Anti-tumor Activity vs. AMO-1 (DSMZ), Median (3.13 mg/kg IV QDx1, day 13): 216.30
- Anti-tumor Activity vs. AMO-1 (DSMZ), individual animal (3.13 mg/kg IV QDx1, day 13): 219 and 210 and 215 and 217 and 224 and 221 and 209 and 214
- Group Mean, Body Weight (3.13 mg/kg IV QDx1, day 14): 21.63 g
- Anti-tumor Activity vs. AMO-1 (DSMZ), Mean (3.13 mg/kg IV QDx1, day 16): 205.11
- Anti-tumor Activity vs. AMO-1 (DSMZ), Median (3.13 mg/kg IV QDx1, day 16): 207.59
- Anti-tumor Activity vs. AMO-1 (DSMZ), individual animal (3.13 mg/kg IV QDx1, day 16): 195 and 171 and 227 and 217 and 219 and 212 and 203 and 196
- Anti-tumor Activity vs. AMO-1 (DSMZ), Mean (3.13 mg/kg IV QDx1, day 19): 192.25
- Anti-tumor Activity vs. AMO-1 (DSMZ), Median (3.13 mg/kg IV QDx1, day 19): 202.67
- Anti-tumor Activity vs. AMO-1 (DSMZ), individual animal (3.13 mg/kg IV QDx1, day 19): 210 and 196 and 181 and 173 and 128 and 213 and 209 and 227
- Anti-tumor Activity vs. AMO-1 (DSMZ), Mean (3.13 mg/kg IV QDx1, day 21): 316.72
- Anti-tumor Activity vs. AMO-1 (DSMZ), Median (3.13 mg/kg IV QDx1, day 21): 336.29
- Anti-tumor Activity vs. AMO-1 (DSMZ), individual animal (3.13 mg/kg IV QDx1, day 21): 248 and 370 and 418 and 238 and 111 and 349 and 477 and 324
- Anti-tumor Activity vs. AMO-1 (DSMZ), Mean (3.13 mg/kg IV QDx1, day 23): 463.98
- Anti-tumor Activity vs. AMO-1 (DSMZ), Median (3.13 mg/kg IV QDx1, day 23): 467.27
- Anti-tumor Activity vs. AMO-1 (DSMZ), individual animal (3.13 mg/kg IV QDx1, day 23): 595 and 419 and 553 and 359 and 205 and 462 and 647 and 473
- Group Mean, Body Weight (3.13 mg/kg IV QDx1, day 23): 22.13 g
- Anti-tumor Activity vs. AMO-1 (DSMZ), Mean (3.13 mg/kg IV QDx1, day 26): 740.25
- Anti-tumor Activity vs. AMO-1 (DSMZ), Median (3.13 mg/kg IV QDx1, day 26): 757.36
- Anti-tumor Activity vs. AMO-1 (DSMZ), individual animal (3.13 mg/kg IV QDx1, day 26): 859 and 654 and 702 and 664 and 464 and 884 and 882 and 812
- Anti-tumor Activity vs. AMO-1 (DSMZ), Mean (3.13 mg/kg IV QDx1, day 28): 1102.63
- Anti-tumor Activity vs. AMO-1 (DSMZ), Median (3.13 mg/kg IV QDx1, day 28): 1024.93
- Anti-tumor Activity vs. AMO-1 (DSMZ), individual animal (3.13 mg/kg IV QDx1, day 28): 1383 and 753 and 968 and 881 and 872 and 1157 and 1725 and 1082
- Group Mean, Body Weight (3.13 mg/kg IV QDx1, day 28): 22.38 g
- Anti-tumor Activity vs. AMO-1 (DSMZ), Mean (3.13 mg/kg IV QDx1, day 30): 1440.23
- Anti-tumor Activity vs. AMO-1 (DSMZ), Median (3.13 mg/kg IV QDx1, day 30): 1430.49
- Anti-tumor Activity vs. AMO-1 (DSMZ), individual animal (3.13 mg/kg IV QDx1, day 30): 1812 and 984 and 1324 and 1150 and 1149 and 1537 and 1916 and 1649
- Anti-tumor Activity vs. AMO-1 (DSMZ), Mean (3.13 mg/kg IV QDx1, day 34): 2233.47
- Anti-tumor Activity vs. AMO-1 (DSMZ), Median (3.13 mg/kg IV QDx1, day 34): 2203.67
- Anti-tumor Activity vs. AMO-1 (DSMZ), individual animal (3.13 mg/kg IV QDx1, day 34): 2874 and 1660 and 1699 and 1719 and 1802 and 2605 and 2742 and 2768
- Xenograft AMO-1 (DSMZ) tumor volume Day 13, Mean [1]: 216.27 mm³
- Xenograft AMO-1 (DSMZ) tumor volume Day 13, Median [1]: 216.30 mm³
- % T/C (mean) (3.13 mg/kg IV QDx1, Day 13 (day before dosing begins), mean(T)/mean(C)): 100.07%
- % T/C (median) (3.13 mg/kg IV QDx1, Day 13 (day before dosing begins), median(T)/median(C)): 100.06%
- Xenograft AMO-1 (DSMZ) (mm³) Day 13, individual animals (3.13 mg/kg IV QDx1, SCID-beige female mice, Day 13 (randomization, day before dosing begins)): 219 mm³ and 210 mm³ and 215 mm³ and 217 mm³ and 224 mm³ and 221 mm³ and 209 mm³ and 214 mm³
- Xenograft AMO-1 (DSMZ) tumor volume Day 26, Mean [2]: 740.25 mm³
- Xenograft AMO-1 (DSMZ) tumor volume Day 26, Median [2]: 757.36 mm³
